According to EP3892267A1, “C[…] FOR LYMPHOMA” (Université de Paris, priority 2020, dated 2021):
Counter-ions that a name gives are not always drawn.

Columns and labels:
[1] = tested on: MD901 cell line; test: Immunoblotting for cleaved caspase 3; type: cell-based, Human; details: MD901 (ABC); metformin 2.5mM, Kidrolase 2UI/mL, alone or combined
Method: (§1) The cells are washed in cold 1X PBS then lysis is carried out at 4°C (on ice) for 20 minutes, using a mix containing a High Salt buffer (0.4 M NaCl). 25 mM Hepes pH 7.7, 1.5 mM MgCI 2, 0.2 mM EDTA, 1%NP4O), protease and phosphatase inhibitors (20 mM glycerol phosphate, 0.2 mM Na3VO4, 10mM PNPP, 2 mM DTT, […] and an inhibitor cocktail from Boehringer Company). Whole cell extracts are centrifuged also at 4°C for 10 minutes at 13 000 rpm, the supernatant is transferred to an Eppendorf tube and the proteins are dosed using a protein kit assay (Bio-Rad) and stored at - 80°C. Immunoblotting was performed as previously reported (Authier H et al, 2014). Cleaved caspase 3 and β-actin antibodies are from Cell Signaling Technologies and Sigma, respectively.

[2] = tested on: OCI-LY19 cell line; test: Immunoblotting for cleaved caspase 3; type: cell-based, Human; details: OCI-LY19 (GCB); metformin 2.5mM, Kidrolase 2UI/mL, alone or combined
Method: as §1

## CN(C)C(=N)N=C(N)N [metformin, Metformin hydrochloride]
[1]
  activation of caspase 3 (cleaved caspase 3): not to barely detectable
[2]
  activation of caspase 3 (cleaved caspase 3): not to barely detectable
